Reference: the NIST ThermoML archive (doi:10.1007/s10765-014-1617-1)
Numbers after ± are expanded uncertainties.

Key:
[1] = 101.33 kPa, Liquid; for thermal conductivity: Parallel plate method; for mass density: Vibrating tube method
[2] = refractive index (Na D-line) (dimensionless); settings: 101.33 kPa, Liquid, Standard Abbe refractometry

Row | SMILES | thermal conductivity ([1]; 283.15 K) | mass density ([1]; 283.15 K) | mass density ([1]; 288.15 K) | thermal conductivity ([1]; 293.15 K) | mass density ([1]; 293.15 K) | mass density ([1]; 298.15 K) | thermal conductivity ([1]; 303.15 K) | mass density ([1]; 303.15 K) | mass density ([1]; 308.15 K) | thermal conductivity ([1]; 313.15 K) | mass density ([1]; 313.15 K) | mass density ([1]; 318.15 K) | thermal conductivity ([1]; 323.15 K) | mass density ([1]; 323.15 K) | mass density ([1]; 328.15 K) | thermal conductivity ([1]; 333.15 K) | mass density ([1]; 333.15 K) | mass density ([1]; 338.15 K) | thermal conductivity ([1]; 343.15 K) | thermal conductivity ([1]; 353.15 K) | also measured
1 | CCCCCCCCn1cc[n+](C)c1.N#C[B-](C#N)(C#N)C#N [1-methyl-3-octylimidazolium tetracyanoborate] | 0.1703 ± 0.0057 W/m/K | 985.65 ± 0.29 kg/m3 | 982.14 ± 0.29 kg/m3 | 0.1694 ± 0.0057 W/m/K | 978.62 ± 0.29 kg/m3 | 975.1 ± 0.29 kg/m3 | 0.1682 ± 0.0056 W/m/K | 971.6 ± 0.29 kg/m3 | 968.12 ± 0.29 kg/m3 | 0.1644 ± 0.0055 W/m/K | 964.65 ± 0.28 kg/m3 | 961.2 ± 0.28 kg/m3 | 0.1586 ± 0.0053 W/m/K | 957.76 ± 0.28 kg/m3 | 954.34 ± 0.28 kg/m3 | 0.1573 ± 0.0053 W/m/K | 950.94 ± 0.28 kg/m3 | 947.55 ± 0.28 kg/m3 | 0.1543 ± 0.0052 W/m/K | 0.1513 ± 0.0051 W/m/K | mass density ([1]; 343.15 K): 944.17 ± 0.28 kg/m3; mass density ([1]; 348.15 K): 940.82 ± 0.28 kg/m3; mass density ([1]; 353.15 K): 937.45 ± 0.28 kg/m3; mass density ([1]; 358.15 K): 934.15 ± 0.28 kg/m3; mass density ([1]; 363.15 K): 930.84 ± 0.28 kg/m3; refractive index ([2]; 283.15 K): 1.4603 ± 0.0006; refractive index ([2]; 293.15 K): 1.457 ± 0.0006; refractive index ([2]; 303.15 K): 1.4541 ± 0.0006; refractive index ([2]; 313.15 K): 1.4509 ± 0.0006
2 | CCn1cc[n+](C)c1.N#C[C-](C#N)C#N [1-ethyl-3-methyl-1H-imidazolium tricyanomethanide] | 0.1966 ± 0.0066 W/m/K | 1091.96 ± 1 kg/m3 | 1088.37 ± 1 kg/m3 | 0.1958 ± 0.0066 W/m/K | 1084.8 ± 1 kg/m3 | 1081.25 ± 1 kg/m3 | 0.1955 ± 0.0066 W/m/K | 1077.71 ± 1 kg/m3 | 1074.19 ± 0.99 kg/m3 | 0.1928 ± 0.0065 W/m/K | 1070.69 ± 0.98 kg/m3 | 1067.21 ± 0.98 kg/m3 | 0.1917 ± 0.0064 W/m/K | 1063.74 ± 0.97 kg/m3 | 1060.29 ± 0.96 kg/m3 | 0.1896 ± 0.0064 W/m/K | 1056.86 ± 0.95 kg/m3 | 1053.44 ± 0.95 kg/m3 | 0.1883 ± 0.0063 W/m/K | 0.1874 ± 0.0063 W/m/K | mass density ([1]; 343.15 K): 1050.04 ± 0.94 kg/m3; mass density ([1]; 348.15 K): 1046.66 ± 0.93 kg/m3; mass density ([1]; 353.15 K): 1043.28 ± 0.93 kg/m3; mass density ([1]; 358.15 K): 1039.93 ± 0.92 kg/m3; mass density ([1]; 363.15 K): 1036.58 ± 0.91 kg/m3; refractive index ([2]; 283.15 K): 1.516 ± 0.0007; refractive index ([2]; 293.15 K): 1.5131 ± 0.0007; refractive index ([2]; 303.15 K): 1.5101 ± 0.0007; refractive index ([2]; 313.15 K): 1.5071 ± 0.0007
3 | CCCCCCn1cc[n+](C)c1.N#C[B-](C#N)(C#N)C#N [1-hexyl-3-methylimidazolium tetracyanoborate] | 0.1762 ± 0.0059 W/m/K |  |  | 0.1752 ± 0.0059 W/m/K |  |  | 0.1741 ± 0.0058 W/m/K |  |  | 0.1714 ± 0.0057 W/m/K |  |  | 0.1722 ± 0.0058 W/m/K |  |  | 0.1697 ± 0.0057 W/m/K |  |  | 0.1677 ± 0.0056 W/m/K | 0.1656 ± 0.0056 W/m/K | 
4 | CCCCCCCCCCn1cc[n+](C)c1.N#C[B-](C#N)(C#N)C#N [1-decyl-3-methyl-1H-imidazolium tetracyanoborate] | 0.1665 ± 0.0056 W/m/K | 972.81 ± 0.29 kg/m3 | 969.36 ± 0.29 kg/m3 | 0.1673 ± 0.0056 W/m/K | 965.94 ± 0.28 kg/m3 | 962.51 ± 0.28 kg/m3 | 0.1667 ± 0.0056 W/m/K | 959.09 ± 0.28 kg/m3 | 955.68 ± 0.28 kg/m3 | 0.1646 ± 0.0055 W/m/K | 952.29 ± 0.28 kg/m3 | 948.91 ± 0.28 kg/m3 | 0.164 ± 0.0055 W/m/K | 945.54 ± 0.28 kg/m3 | 942.19 ± 0.28 kg/m3 | 0.1613 ± 0.0054 W/m/K | 938.85 ± 0.28 kg/m3 | 935.53 ± 0.28 kg/m3 | 0.16 ± 0.0054 W/m/K | 0.1586 ± 0.0053 W/m/K | mass density ([1]; 343.15 K): 932.22 ± 0.28 kg/m3; mass density ([1]; 348.15 K): 928.94 ± 0.28 kg/m3; mass density ([1]; 353.15 K): 925.65 ± 0.28 kg/m3; mass density ([1]; 358.15 K): 922.39 ± 0.28 kg/m3; mass density ([1]; 363.15 K): 919.14 ± 0.28 kg/m3; refractive index ([2]; 283.15 K): 1.4612 ± 0.0006; refractive index ([2]; 293.15 K): 1.4584 ± 0.0006; refractive index ([2]; 303.15 K): 1.4552 ± 0.0006; refractive index ([2]; 313.15 K): 1.4522 ± 0.0006
5 | CCCCCCCCn1cc[n+](C)c1.N#CC(=C=[N-])C#N [1-methyl-3-octylimidazolium tricyanomethanide] | 0.1717 ± 0.0058 W/m/K | 1010.18 ± 0.86 kg/m3 | 1006.97 ± 0.85 kg/m3 | 0.1689 ± 0.0057 W/m/K | 1003.75 ± 0.85 kg/m3 | 1000.54 ± 0.84 kg/m3 | 0.1675 ± 0.0057 W/m/K | 997.34 ± 0.83 kg/m3 | 994.15 ± 0.83 kg/m3 | 0.1685 ± 0.0057 W/m/K | 990.97 ± 0.83 kg/m3 | 987.8 ± 0.82 kg/m3 | 0.1678 ± 0.0057 W/m/K | 984.65 ± 0.82 kg/m3 | 981.5 ± 0.82 kg/m3 | 0.1655 ± 0.0056 W/m/K | 978.37 ± 0.81 kg/m3 | 975.25 ± 0.81 kg/m3 | 0.1642 ± 0.0056 W/m/K | 0.1639 ± 0.0056 W/m/K | mass density ([1]; 343.15 K): 972.14 ± 0.8 kg/m3; mass density ([1]; 348.15 K): 969.05 ± 0.8 kg/m3; mass density ([1]; 353.15 K): 965.97 ± 0.8 kg/m3; mass density ([1]; 358.15 K): 962.89 ± 0.79 kg/m3; mass density ([1]; 363.15 K): 959.82 ± 0.79 kg/m3; refractive index ([2]; 283.15 K): 1.5048 ± 0.0007; refractive index ([2]; 293.15 K): 1.5021 ± 0.0007; refractive index ([2]; 303.15 K): 1.4993 ± 0.0007; refractive index ([2]; 313.15 K): 1.4964 ± 0.0007
6 | CCCCCC[n+]1ccn(C)c1.N#C[C-](C#N)C#N [3-hexyl-1-methylimidazolium tricyanomethanide] | 0.1817 ± 0.0061 W/m/K | 1030.55 ± 0.9 kg/m3 | 1027.22 ± 0.89 kg/m3 | 0.1815 ± 0.0061 W/m/K | 1023.92 ± 0.89 kg/m3 | 1020.62 ± 0.88 kg/m3 | 0.1831 ± 0.0062 W/m/K | 1017.35 ± 0.87 kg/m3 | 1014.08 ± 0.87 kg/m3 | 0.1817 ± 0.0061 W/m/K | 1010.83 ± 0.86 kg/m3 | 1007.58 ± 0.85 kg/m3 | 0.181 ± 0.0061 W/m/K | 1004.35 ± 0.85 kg/m3 | 1001.14 ± 0.84 kg/m3 | 0.1792 ± 0.006 W/m/K | 997.93 ± 0.84 kg/m3 | 994.74 ± 0.83 kg/m3 | 0.1774 ± 0.006 W/m/K | 0.1762 ± 0.0059 W/m/K | mass density ([1]; 343.15 K): 991.57 ± 0.83 kg/m3; mass density ([1]; 348.15 K): 988.4 ± 0.82 kg/m3; mass density ([1]; 353.15 K): 985.24 ± 0.82 kg/m3; mass density ([1]; 358.15 K): 982.11 ± 0.82 kg/m3; mass density ([1]; 363.15 K): 978.98 ± 0.81 kg/m3; refractive index ([2]; 283.15 K): 1.5084 ± 0.0007; refractive index ([2]; 293.15 K): 1.5055 ± 0.0007; refractive index ([2]; 303.15 K): 1.5026 ± 0.0007; refractive index ([2]; 313.15 K): 1.4994 ± 0.0007
7 | CCCCn1cc[n+](C)c1.N#C[B-](C#N)(C#N)C#N [1-butyl-3-methyl-1H-imidazolium tetracyanoborate] | 0.178 ± 0.006 W/m/K | 1021.17 ± 0.3 kg/m3 | 1017.37 ± 0.3 kg/m3 | 0.1791 ± 0.006 W/m/K | 1013.59 ± 0.3 kg/m3 | 1009.83 ± 0.3 kg/m3 | 0.1756 ± 0.0059 W/m/K | 1006.09 ± 0.29 kg/m3 | 1002.37 ± 0.29 kg/m3 | 0.1737 ± 0.0058 W/m/K | 998.67 ± 0.29 kg/m3 | 995 ± 0.29 kg/m3 | 0.1732 ± 0.0058 W/m/K | 991.34 ± 0.29 kg/m3 | 987.71 ± 0.29 kg/m3 | 0.1693 ± 0.0057 W/m/K | 984.09 ± 0.29 kg/m3 | 980.5 ± 0.29 kg/m3 | 0.1664 ± 0.0056 W/m/K | 0.1632 ± 0.0055 W/m/K | mass density ([1]; 343.15 K): 976.92 ± 0.29 kg/m3; mass density ([1]; 348.15 K): 973.37 ± 0.29 kg/m3; mass density ([1]; 353.15 K): 969.82 ± 0.29 kg/m3; mass density ([1]; 358.15 K): 966.3 ± 0.29 kg/m3; mass density ([1]; 363.15 K): 962.8 ± 0.28 kg/m3; refractive index ([2]; 283.15 K): 1.4561 ± 0.0006; refractive index ([2]; 293.15 K): 1.4533 ± 0.0006; refractive index ([2]; 303.15 K): 1.45 ± 0.0006; refractive index ([2]; 313.15 K): 1.4473 ± 0.0006
8 | CCCCCCCCCC[n+]1ccn(C)c1.N#C[C-](C#N)C#N [3-decyl-1-methylimidazolium tricyanomethanide] | 0.168 ± 0.0057 W/m/K | 992.5 ± 0.83 kg/m3 | 989.38 ± 0.82 kg/m3 | 0.1694 ± 0.0057 W/m/K | 986.25 ± 0.82 kg/m3 | 983.11 ± 0.82 kg/m3 | 0.1674 ± 0.0057 W/m/K | 979.98 ± 0.81 kg/m3 | 976.85 ± 0.81 kg/m3 | 0.1676 ± 0.0057 W/m/K | 973.73 ± 0.81 kg/m3 | 970.63 ± 0.8 kg/m3 | 0.1673 ± 0.0057 W/m/K | 967.53 ± 0.8 kg/m3 | 964.44 ± 0.8 kg/m3 | 0.1646 ± 0.0056 W/m/K | 961.37 ± 0.79 kg/m3 | 958.31 ± 0.79 kg/m3 | 0.162 ± 0.0055 W/m/K | 0.1593 ± 0.0054 W/m/K | mass density ([1]; 343.15 K): 955.24 ± 0.79 kg/m3; mass density ([1]; 348.15 K): 952.2 ± 0.78 kg/m3; mass density ([1]; 353.15 K): 949.17 ± 0.78 kg/m3; mass density ([1]; 358.15 K): 946.15 ± 0.77 kg/m3; mass density ([1]; 363.15 K): 943.13 ± 0.77 kg/m3; refractive index ([2]; 283.15 K): 1.5008 ± 0.0007; refractive index ([2]; 293.15 K): 1.4981 ± 0.0007; refractive index ([2]; 303.15 K): 1.495 ± 0.0007; refractive index ([2]; 313.15 K): 1.4918 ± 0.0007
